The values that follow come from patent publication US20080108562A1, “Treatment Of Bone Metastases By Means Of Pth Receptor Agonists” (Ferring B.V., priority 2004, published 2008).

For one data set, the target named is T1, PTH receptor (Homo sapiens, UniProt Q03431).
T1 sequence (Q03431 27-593): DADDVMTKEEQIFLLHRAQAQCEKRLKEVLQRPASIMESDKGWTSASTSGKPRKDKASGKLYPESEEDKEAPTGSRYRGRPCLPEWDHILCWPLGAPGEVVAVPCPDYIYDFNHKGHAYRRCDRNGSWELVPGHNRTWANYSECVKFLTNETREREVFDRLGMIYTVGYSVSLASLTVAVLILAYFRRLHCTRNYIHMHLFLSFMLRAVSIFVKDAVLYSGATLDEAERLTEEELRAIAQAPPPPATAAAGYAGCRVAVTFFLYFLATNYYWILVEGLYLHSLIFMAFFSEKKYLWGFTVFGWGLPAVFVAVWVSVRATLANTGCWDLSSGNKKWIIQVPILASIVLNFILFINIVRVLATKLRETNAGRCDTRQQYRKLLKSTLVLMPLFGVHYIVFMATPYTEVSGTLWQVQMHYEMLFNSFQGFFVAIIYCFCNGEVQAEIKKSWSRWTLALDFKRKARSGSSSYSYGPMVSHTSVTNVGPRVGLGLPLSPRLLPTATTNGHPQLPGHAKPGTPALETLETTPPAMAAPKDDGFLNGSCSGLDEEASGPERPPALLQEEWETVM
The settings on record: bone-related activities; relative to native 84 amino-acid hormone; cited from earlier work.

Data set [1] deals with adult C3H mice with murine CCL-11 (NCTC clone 2472) osteolytic sarcoma cells injected into the distal femur. Description: Radiological analysis of bone density in animal model for metastatic bone disease. In kind it is in vivo. The protocol:
(§1) An animal model for metastatic bone disease was established in adult C3H mice with murine sarcoma cells as described in Honore, et al., Neuroscience. (2000) 98(3):585-98 (see also Clohisy, et al. J Orthop Res. (1996) 14(3):396-402). In brief, murine CCL-11 (NCTC clone 2472) osteolytic sarcoma cells were injected into the distal femur. The injection site was closed with dental grade amalgam. Wounds were closed with wound clips. Wound clips were removed at day 6 to prevent interference with behavioral testing. Sham-injected and sarcoma-injected mice received daily subcutaneous injections of either 10 μl/kg vehicle or 10 μl/kg vehicle containing PTH (1-34) at 80 μg/ml concentration beginning after testing and radiographs were taken 6 d after injection of sarcoma cells. Treatment with PTH (1-34) or vehicle ended 14 d after injection, when final behavioral testing was done and the animals sacrificed.
[…] Mice were lightly anesthetized to prevent movement during the x-ray. The radiographs of the mouse femurs were scanned at maximal resolution (2400 dpi) and saved in digital grayscale format (TIFF). The grayscale levels were standardized for all radiographs by setting the amalgam region to white (grayscale value of 255) and the lower limit of the grayscale was set to the darkest pixels of the scanned image. The grayscale values correspond to the luminosity of the scanned images.
The images were analyzed with Metamorph (Universal Imaging Corp, West Chester, Pa.). The bones were divided into 3 equal regions. Data were taken from the lower region at the site were sarcoma cells were injected. Thresholding was standardized to include all pixels with grayscale values between 2 to 76. Since grayscale values are related to luminosity, an increase in the threshold area represents an increase in darker, or lower density, bone area. The integrated intensity values for the regions were determined with Metamorph. Significant decreases in the intensity of a region indicates a significant reduction in bone density. […]

The test system is the same in data set [2]. Description: Flinching and guarding behavior in animal model for metastatic bone disease. It counts as in vivo. The settings on record: metastatic bone tumor animals, day 14. The protocol: as §1
To assess flinching and guarding behavior, animals were placed in raised plexiglass chambers with a wire grid floor for observation of flinching and guarding of the right hindlimb. The mice were allowed to acclimate to the chamber for 20 minutes. Guarding and flinching behaviors of each mouse were measured for 2 minutes. The number of flinches were counted, and the time spent guarding the foot (the foot is lifted off of the floor) was measured.

For data set [3] the test system is unchanged. As to the kind of experiment: Tactile allodynia (von Frey paw withdrawal threshold) in animal model for metastatic bone disease. In kind it is in vivo. The settings on record: metastatic bone tumor animals, day 14. How it is done:
as §1, with “Treatment with PTH (1-34) or vehicle ended 14 d after injection, when final behavioral testing was done and the animals sacrificed.” left out
Tactile allodynia was determined in the manner described by Chaplan et al. J Neurosci Methods (1994) 53(1):55-63. Paw withdrawal threshold was determined in response to probing with calibrated von Frey filaments. […] The 50% paw withdrawal threshold was determined by the non-parametric method of Dixon (Dixon, Annu Rev Pharmacol Toxicol 20:441-462, 1980). […] The 50% paw withdrawal threshold was determined as (10^[Xf+kδ])/10,000, where Xf=the value of the last von Frey filament employed, k=Dixon value for the positive/negative pattern, and δ=the mean (log) difference between stimuli. […]

Data set [4] has the same test system. Description: Spontaneous limb use in animal model for metastatic bone disease. In kind it is in vivo. The following applies: metastatic bone tumor animals, day 14. The protocol: as §1
Spontaneous limb use was assessed as described by Luger et al (2001). The mouse was placed in an empty mouse pan and observed while walking across the pan in a continuous motion. Limping and/or guarding behavior of the right (sarcoma treated) hindlimb was rated on the following scale: 0=complete lack of use, 1=partial non-use, 2=limping and guarding, 3=limping, 4=normal walking.

The next data set relates to rats. The settings on record: rat, in vivo; cited from earlier work.

Entries after “also recorded” stand apart in the source; their conditions may differ.

For the substance “PTH(1-25): carboxyl-terminal truncation of PTH(1-34) (SVSEIQLMHNLGKHLNSMERVEWLR; UniProt P01270 32-56, looked up, fragment)”, in the data set with PTH receptor, the “agonist activity of PTH fragment” value is “essentially inactive”.

For “PTH(1-34): truncated form of parathyroid hormone, residues 1-34; PTH receptor agonist tested in the mouse model (SVSEIQLMHNLGKHLNSMERVEWLRKKLQDVHNF; listed as Homo sapiens)”, the “bone density (optical density of x-ray radiographs)” value was “some bone density increase” in data set [1] (normal (sham-injected) animals, daily s.c. PTH(1-34), day 14); “near normal bone density” in data set [1] (sarcoma bearing animals, daily s.c. from day 6, day 14); “increase in density over that of normal untreated animals” in data set [1] (sarcoma bearing animals, day 17, versus normal untreated animals). Moreover, the limb guarding entry in data set [2] is given as “ameloriated pain; also recorded: significantly reduced”. In data set [2], the “spontaneous pain (spontaneous flinching)” value is on record as “ameloriated pain”. Also, the “tactile hypersensitivity (evoked pain)” value is listed as “not effected” in data set [3] and “did not effect” in data set [3] (listed as PTH (1-34)). Besides, the limb use result in data set [4] is “ameloriated pain”; in data set [4] (listed as PTH (1-34)) it was “returned to near normal levels”.

On to teriparatide acetate, for which, in the data set with rats, the “risk of osteosarcoma (a malignant bone tumor)” value is given as “increased risk of osteosarcoma”.
